Assay results reported in patent publication EP0043971A1, “Indanoneoxyalkylpiperazine derivatives, the preparation thereof and pharmaceutical compositions containing the same” (priority 1980, dated 1982).
Like-named read-outs stand apart in the source and are kept apart here.

Columns and labels:
weiblichen NMRI-Mäusen = test: Sedative effect: inhibition of orientation hypermotility induced by a new environment, photoelectric measurement; format: in vivo, Maus; conditions: for ED50: Mus musculus, po, 0.5 h, Maus, read-out: Motilitätshemmung ED 50 %; for Wirkungsstärke (sedativ) der Referenzsubstanz / Motilitätshemmung um 50 %: -mal größere Dosen als Referenzsubstanz: relative to Chlorpromazin; for Wirkungsstärke (sedativ) der Referenzsubstanz: mouse p.o.; for sedative Wirkung: result in words
Text: (§1) Sie eignen sich mit bevorzugter sedativ/transquilisierender und anti-monaminerger Wirkung als Sedativa/Hypnotika oder als Tranquilizer bzw. Neuroleptica. Andere erfindungsgemäße Verbindungen eignen sich wegen ihrer relativ selektiven blutdrucksenkenden Wirksamkeit zur Behandlung der Hypertonie und zur Entlastung des Herzen bei Herzinsuffizienz. ) Zum Nachweis der pharmakologischen Wirkungen wurden folgende Methoden verwendet: • 1. Sedative Wirkung • 4-8 Gruppen von jeweils 3 weiblichen NMRI-Mäusen erhalten die Substanz oral appliziert. Die photoelektrische Bestimmung der durch eine neue Umgebung induzierten Orientierungshypermotilität erfolgt 30 min nach der Applikation der Substanzen für eine Dauer von 30 min. • Als ED 50 wird die Dosis bestimmt, welche im Vergleich zu Placebo-behandelten Kontrolltieren eine Abnahme der Orientierungshypermotilität um 50 % bewirkt. • 2. Anti-Methamphetamin-Wirkung • Methamphetamin-HCl (2,5 mg/kg i.v.) ruft an Ratten regelmäßig folgende Symptome hervor: motorische Unruhe, Such- und Schnüffelbewegungen, Fellsträuben sowie Tremor (Janssen et al., Arzeim. Forsch./Drug Res. 13, 205, 1963, RANDRUP et al., Psychopharmacologia 11, 300, 1967). • Die Prüfsubstanzen werden 30 min vor Methamphetamin intraperitoneal verabfolgt. Kriterium für einen Substanzeffekt ist das Ausbleiben der Schnüffelbewegungen innerhalb eines 5-minütigen Beobachtungszeitraums nach Methamphetamin-Injektion. • Als mittlere Hemmdosis (ED 50) wird mittels Probitanalyse die Dosis ermittelt, die das Symptom bei der Hälfte der Tiere verhindert. • 3. Hypotensive Wirkung • Die blutdrucksenkende Wirkung wurde an narkotisierten Ratten (Stamm: Spraque Dawley, Gewicht: 230-280 g) in Urethan-Narkose (1,78 g/kg i.p.) nachgewiesen. Der Blutdruck wurde in der Aorta carotis gemessen. Die Substanzapplikation erfolgte in eine Vena jugularis (wäßrige Lösung, 1 ml/kg). Als ED 20 % wurden aus der linearen Regression zwischen log Dosis (mg/kg) und relativer Blutdrucksenkung (Δ%) die Dosen ermittelt, welche eine 20 %ige Blutdrucksenkung bewirken.

[1] = test system: narkotisierten Ratten (Stamm: Spraque Dawley); test: Hypotensive effect: blood pressure lowering in urethane-anaesthetised rats; format: in vivo, Ratte; conditions: for ED20: Rattus norvegicus, iv, read-out: Blutdrucksenkung ED 20 %; for Blutdrucksenkung ED 20 % R.W. (Relative Wirksamkeit: Chlorpromazin = 1,00) / Blutdrucksenkung ED 20 % R.W. (Relative Wirksamkeit; Chlorpromazin = 1,00): i.v.; for Q (ED 50 % Motilitätshemmung / ED 20 % Blutdrucksenkung): ratio of mouse p.o. ED 50 % to rat i.v. ED 20 %; for hypotensiv wirksame Dosen, -mal größer als die der Referenzsubstanz: rat i.v.
Text: as §1

[2] = Table 1, Applikation: per. os., measured 30 min after application for 30 min
[3] = Table 1, Ratte, Urethan-Narkose, Applikation: i.v.
[4] = Table 2, Ratte, Urethan-Narkose
[5] = Table 2, Ratte, Urethan-Narkose, Applikation: i.v.
[6] = Table 1, Ratte, Urethan-Narkose

Compound	ED50 (weiblichen NMRI-Mäusen; [2]) [mg/kg]	sedative Wirkung (weiblichen NMRI-Mäusen)	ED50 (weiblichen NMRI-Mäusen; Table 2, Applikation: per os.) [mg/kg]	Blutdrucksenkung ED 20 % R.W. (Relative Wirksamkeit: Chlorpromazin = 1,00) [1, 4]	Q (ED 50 % Motilitätshemmung / ED 20 % Blutdrucksenkung) ([1]; Table 2)	ED20 [1, 5] [mg/kg]	also measured
O=C1CCc2c(OCC(O)CN3CCN(c4ccc(F)cc4)CC3)cccc21 (racemic) [Beispiel 1, 4-(3-[4-(4-Fluorphenyl)-1-piperazinyl]-2-hydroxy-propoxy)--indanon-1]	3.05	sedativ wirken					Wirkungsstärke (sedativ) der Referenzsubstanz (weiblichen NMRI-Mäusen): 69%; ED20 [1, 3]: 1.07 mg/kg
Cc1ccccc1N1CCN(CC(O)COc2cccc3c2CCC3=O)CC1 (racemic) [Beispiel 10, 4-(3-[4-(2-Methylphenyl)-1-pipera-zinyl]-2-hydroxy-propoxy)-indanon-1]			46.4	0,16	294		Motilitätshemmung um 50 %: -mal größere Dosen als Referenzsubstanz (weiblichen NMRI-Mäusen): 20 mal; Wirksamkeit nach den blutdrucksenkenden Dosen (ED 20 %) von Chlorpromazin ([1]; relative to Chlorpromazin): 16%
COc1ccccc1N1CCN(CC(O)COc2cccc3c2CCC3=O)CC1 (racemic) [Beispiel 13, 4-(3-[4-(2-Methoxyphenyl)-1-pipera-zinyl]-2-hydroxy-propoxy)-indanon-1]			11	0,89	376	0.0293	Motilitätshemmung um 50 %: -mal größere Dosen als Referenzsubstanz (weiblichen NMRI-Mäusen): 5 mal; Wirksamkeit nach den blutdrucksenkenden Dosen (ED 20 %) von Chlorpromazin ([1]; relative to Chlorpromazin): 89%
COc1cccc(N2CCN(CC(O)COc3cccc4c3CCC4=O)CC2)c1 (racemic) [Beispiel 14, 4-(3-[4-(3-Methoxyphenyl)-1-pipera-zinyl]-2-hydroxy-propoxy)-indanon-1]	9.44	sedativ wirken					Wirkungsstärke (sedativ) der Referenzsubstanz (weiblichen NMRI-Mäusen): 22%; ED20 [1, 3]: 1 mg/kg
COc1ccccc1N1CCN(CC(O)COc2ccc3c(c2)CCC3=O)CC1 (racemic) [Beispiel 17]			13.2	0,36	183	0.0722	Quotienten aus den effektiven Dosen für die Motilitätshemmung (ED 50 %) und Blutdrucksenkung (ED 20 %) [1]: 183
COc1ccc(N2CCN(CC(O)COc3ccc4c(c3)CCC4=O)CC2)cc1 (racemic) [Beispiel 19, 5-(3-[4-(4-Methoxyphenyl)-1-piperazi-nyl]-2-hydroxy-propoxy)-indanon-1]	5.76	sedativ wirken					ED20 [1, 3]: 7.91 mg/kg; hypotensiv wirksame Dosen, -mal größer als die der Referenzsubstanz ([1]; relative to Chlorpromazin): 300 mal
O=C1CCc2cccc(OCC(O)CN3CCN(c4ccccc4Cl)CC3)c21 (racemic) [Beispiel 20, 7-(3-[4-(2-Chlorphenyl)-1-piperazinyl]--2-hydroxy-propoxy)-indanon-1]			42.4	2,50	4077	0.0104	Motilitätshemmung um 50 %: -mal größere Dosen als Referenzsubstanz (weiblichen NMRI-Mäusen): 20 mal; Quotienten aus den effektiven Dosen für die Motilitätshemmung (ED 50 %) und Blutdrucksenkung (ED 20 %) [1]: 4 077; stärker wirksam als Chlorpromazin (Blutdrucksenkung ED 20 %) ([1]; relative to Chlorpromazin): 2,5 mal
COc1ccccc1N1CCN(CC(O)COc2cccc3c2C(=O)CC3)CC1 (racemic) [Beispiel 23, 7-(3-[4-(2-Methoxyphenyl)-1-piperazi-nyl]-2-hydroxy-propoxy)-indanon-1]			19	0,46	333	0.057	
O=C1CCc2c(OCCCN3CCN(c4ccc(F)cc4)CC3)cccc21 [Beispiel 4, 4-(3-[4-(4-Fluorphenyl)-1-piperazinyl]-propoxy)-indan-1-on]	3.56	sedativ wirken					Blutdrucksenkung ED 20 % R.W. (Relative Wirksamkeit; Chlorpromazin = 1,00) [1, 6]: 0,14
O=C1CCc2cccc(OCCCN3CCN(c4ccc(F)cc4)CC3)c21 [Beispiel 30, 7-(3-[4-(4-Fluorphenyl)-1-piperazinyl]--propoxy)-indanon-1]	5.03	sedativ wirken					Blutdrucksenkung ED 20 % R.W. (Relative Wirksamkeit; Chlorpromazin = 1,00) [1, 6]: 0,16; hypotensiv wirksame Dosen, -mal größer als die der Referenzsubstanz ([1]; relative to Chlorpromazin): 6 mal
CN(C)CCCN1c2ccccc2Sc2ccc(Cl)cc21 [Chlorpromazin, reference compound]	2.11			1,00	81		Quotienten aus den effektiven Dosen für die Motilitätshemmung (ED 50 %) und Blutdrucksenkung (ED 20 %) [1]: 81; ED20 [1]: 0.026 mg/kg; Blutdrucksenkung ED 20 % R.W. (Relative Wirksamkeit; Chlorpromazin = 1,00) [1, 6]: 1,00; Blutdrucksenkung ED 20 % [1, 5]: 0,0260 mg/kg
